Results reported in PMC7156458, “Synthetic biology based construction of biological activity-related library of fungal decalin-containing diterpenoid pyrones” (Nature Communications, 2020).

Target: Aβ42 (Homo sapiens, UniProt P05067)
Experiment: Th-T (thioflavin-T) assay of Aβ42 aggregation
Format: biochemical
Details: for Th-T assay plate reading, mean of three wells (Supplementary Fig. 47): source data, Ab alone and No Ab as controls

Chain of Aβ42 (P05067 672-713): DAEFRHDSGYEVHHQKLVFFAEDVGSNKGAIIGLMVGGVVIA

## C=C1CCC2C(C)(CC(=O)C=C(C)C)C(O)CCC2(C)C1Cc1c(O)c(C)c(C)oc1=O (centres unmarked) [Compound 7]
Aβ42 aggregation time course, reading M117
  Th-T fluorescence, mean of three wells: 3.444
Aβ42 aggregation time course, reading M118
  Th-T fluorescence, mean of three wells: 3.462
Aβ42 aggregation time course, reading M119
  Th-T fluorescence, mean of three wells: 3.421
Aβ42 aggregation time course, reading M120
  Th-T fluorescence, mean of three wells: 3.485
Aβ42 aggregation time course, reading M121
  Th-T fluorescence, mean of three wells: 3.437
Aβ42 aggregation time course, reading M122
  Th-T fluorescence, mean of three wells: 3.4838
Aβ42 aggregation time course, reading M123
  Th-T fluorescence, mean of three wells: 3.463
Aβ42 aggregation time course, reading M124
  Th-T fluorescence, mean of three wells: 3.451
Aβ42 aggregation time course, reading M125
  Th-T fluorescence, mean of three wells: 3.454
Aβ42 aggregation time course, reading M126
  Th-T fluorescence, mean of three wells: 3.465
Aβ42 aggregation time course, reading M127
  Th-T fluorescence, mean of three wells: 3.446
Aβ42 aggregation time course, reading M128
  Th-T fluorescence, mean of three wells: 3.459
Aβ42 aggregation time course, reading M129
  Th-T fluorescence, mean of three wells: 3.461
Aβ42 aggregation time course, reading M130
  Th-T fluorescence, mean of three wells: 3.435
Aβ42 aggregation time course, reading M131
  Th-T fluorescence, mean of three wells: 3.434
Aβ42 aggregation time course, reading M132
  Th-T fluorescence, mean of three wells: 3.446
Aβ42 aggregation time course, reading M133
  Th-T fluorescence, mean of three wells: 3.459
Aβ42 aggregation time course, reading M134
  Th-T fluorescence, mean of three wells: 3.427
Aβ42 aggregation time course, reading M135
  Th-T fluorescence, mean of three wells: 3.416
Aβ42 aggregation time course, reading M136
  Th-T fluorescence, mean of three wells: 3.414
Supplementary Fig. 47, reading M137
  Th-T fluorescence, mean of three wells: 3.399
Supplementary Fig. 47, reading M138
  Th-T fluorescence, mean of three wells: 3.412
Supplementary Fig. 47, reading M139
  Th-T fluorescence, mean of three wells: 3.411
Supplementary Fig. 47, reading M140
  Th-T fluorescence, mean of three wells: 3.433
Supplementary Fig. 47, reading M141
  Th-T fluorescence, mean of three wells: 3.413
Supplementary Fig. 47, reading M142
  Th-T fluorescence, mean of three wells: 3.437
Supplementary Fig. 47, reading M143
  Th-T fluorescence, mean of three wells: 3.394
Supplementary Fig. 47, reading M144
  Th-T fluorescence, mean of three wells: 3.432
Supplementary Fig. 47, reading M145
  Th-T fluorescence, mean of three wells: 3.431
Supplementary Fig. 47 source data, measurement M37 of time course
  Th-T fluorescence, mean of three wells: 3.548
Supplementary Fig. 47 source data, measurement M38 of time course
  Th-T fluorescence, mean of three wells: 3.519
Supplementary Fig. 47 source data, measurement M39 of time course
  Th-T fluorescence, mean of three wells: 3.507
Supplementary Fig. 47 source data, measurement M40 of time course
  Th-T fluorescence, mean of three wells: 3.528
Supplementary Fig. 47 source data, measurement M41 of time course
  Th-T fluorescence, mean of three wells: 3.5472
Supplementary Fig. 47 source data, measurement M42 of time course
  Th-T fluorescence, mean of three wells: 3.534
Supplementary Fig. 47 source data, measurement M43 of time course
  Th-T fluorescence, mean of three wells: 3.54
Supplementary Fig. 47 source data, measurement M44 of time course
  Th-T fluorescence, mean of three wells: 3.555
Supplementary Fig. 47 source data, measurement M45 of time course
  Th-T fluorescence, mean of three wells: 3.57
Supplementary Fig. 47 source data, measurement M46 of time course
  Th-T fluorescence, mean of three wells: 3.557
Supplementary Fig. 47 source data, measurement M47 of time course
  Th-T fluorescence, mean of three wells: 3.602
Supplementary Fig. 47 source data, measurement M48 of time course
  Th-T fluorescence, mean of three wells: 3.575
Supplementary Fig. 47 source data, measurement M49 of time course
  Th-T fluorescence, mean of three wells: 3.594
Supplementary Fig. 47 source data, measurement M50 of time course
  Th-T fluorescence, mean of three wells: 3.623
Supplementary Fig. 47 source data, measurement M51 of time course
  Th-T fluorescence, mean of three wells: 3.626
Supplementary Fig. 47 source data, measurement M52 of time course
  Th-T fluorescence, mean of three wells: 3.602
Supplementary Fig. 47 source data, measurement M53 of time course
  Th-T fluorescence, mean of three wells: 3.622
Supplementary Fig. 47 source data, measurement M54 of time course
  Th-T fluorescence, mean of three wells: 3.589
Supplementary Fig. 47 source data, measurement M55 of time course
  Th-T fluorescence, mean of three wells: 3.592
Supplementary Fig. 47 source data, measurement M56 of time course
  Th-T fluorescence, mean of three wells: 3.6022
Measurement M1
  Th-T assay plate reading, mean of three wells (Supplementary Fig. 47): 0.291
Measurement M2
  Th-T assay plate reading, mean of three wells (Supplementary Fig. 47): 0.3102
Measurement M3
  Th-T assay plate reading, mean of three wells (Supplementary Fig. 47): 0.3462
Measurement M4
  Th-T assay plate reading, mean of three wells (Supplementary Fig. 47): 0.3847
Measurement M5
  Th-T assay plate reading, mean of three wells (Supplementary Fig. 47): 0.4026
Measurement M6
  Th-T assay plate reading, mean of three wells (Supplementary Fig. 47): 0.4778
Measurement M7
  Th-T assay plate reading, mean of three wells (Supplementary Fig. 47): 0.5127
Measurement M8
  Th-T assay plate reading, mean of three wells (Supplementary Fig. 47): 0.5767
Measurement M9
  Th-T assay plate reading, mean of three wells (Supplementary Fig. 47): 0.6534
Measurement M10
  Th-T assay plate reading, mean of three wells (Supplementary Fig. 47): 0.7067
Measurement M11
  Th-T assay plate reading, mean of three wells (Supplementary Fig. 47): 0.7325
Measurement M12
  Th-T assay plate reading, mean of three wells (Supplementary Fig. 47): 0.7635
Measurement M13
  Th-T assay plate reading, mean of three wells (Supplementary Fig. 47): 0.7892
Measurement M14
  Th-T assay plate reading, mean of three wells (Supplementary Fig. 47): 0.8105
Measurement M15
  Th-T assay plate reading, mean of three wells (Supplementary Fig. 47): 0.8372
Measurement M16
  Th-T assay plate reading, mean of three wells (Supplementary Fig. 47): 0.8682
Reading M17, Supplementary Fig. 47 source data
  Th-T fluorescence, mean of three wells: 0.9169
Reading M18, Supplementary Fig. 47 source data
  Th-T fluorescence, mean of three wells: 0.9995
Reading M19, Supplementary Fig. 47 source data
  Th-T fluorescence, mean of three wells: 1.135
Reading M20, Supplementary Fig. 47 source data
  Th-T fluorescence, mean of three wells: 1.37
Reading M21, Supplementary Fig. 47 source data
  Th-T fluorescence, mean of three wells: 1.709
Reading M22, Supplementary Fig. 47 source data
  Th-T fluorescence, mean of three wells: 2.121
Reading M23, Supplementary Fig. 47 source data
  Th-T fluorescence, mean of three wells: 2.518
Reading M24, Supplementary Fig. 47 source data
  Th-T fluorescence, mean of three wells: 2.859
Reading M25, Supplementary Fig. 47 source data
  Th-T fluorescence, mean of three wells: 3.1034
Reading M26, Supplementary Fig. 47 source data
  Th-T fluorescence, mean of three wells: 3.2675
Reading M27, Supplementary Fig. 47 source data
  Th-T fluorescence, mean of three wells: 3.339
Reading M28, Supplementary Fig. 47 source data
  Th-T fluorescence, mean of three wells: 3.364
Reading M29, Supplementary Fig. 47 source data
  Th-T fluorescence, mean of three wells: 3.378
Reading M30, Supplementary Fig. 47 source data
  Th-T fluorescence, mean of three wells: 3.446
Reading M31, Supplementary Fig. 47 source data
  Th-T fluorescence, mean of three wells: 3.431
Reading M32, Supplementary Fig. 47 source data
  Th-T fluorescence, mean of three wells: 3.47
Reading M33, Supplementary Fig. 47 source data
  Th-T fluorescence, mean of three wells: 3.448
Reading M34, Supplementary Fig. 47 source data
  Th-T fluorescence, mean of three wells: 3.489
Reading M35, Supplementary Fig. 47 source data
  Th-T fluorescence, mean of three wells: 3.5187
Reading M36, Supplementary Fig. 47 source data
  Th-T fluorescence, mean of three wells: 3.503
Time course, reading M57
  Th-T fluorescence, mean of three wells: 3.603
Time course, reading M58
  Th-T fluorescence, mean of three wells: 3.607
Time course, reading M59
  Th-T fluorescence, mean of three wells: 3.578
Time course, reading M60
  Th-T fluorescence, mean of three wells: 3.583
Time course, reading M61
  Th-T fluorescence, mean of three wells: 3.605
Time course, reading M62
  Th-T fluorescence, mean of three wells: 3.61
Time course, reading M63
  Th-T fluorescence, mean of three wells: 3.6015
Time course, reading M64
  Th-T fluorescence, mean of three wells: 3.57
Time course, reading M65
  Th-T fluorescence, mean of three wells: 3.572
Time course, reading M66
  Th-T fluorescence, mean of three wells: 3.5992
Time course, reading M67
  Th-T fluorescence, mean of three wells: 3.63
time-course reading M97, Supplementary Fig. 47 source data
  Th-T fluorescence, mean of three wells: 3.5286
time-course reading M98, Supplementary Fig. 47 source data
  Th-T fluorescence, mean of three wells: 3.531
time-course reading M99, Supplementary Fig. 47 source data
  Th-T fluorescence, mean of three wells: 3.498
time-course reading M100, Supplementary Fig. 47 source data
  Th-T fluorescence, mean of three wells: 3.513
time-course reading M101, Supplementary Fig. 47 source data
  Th-T fluorescence, mean of three wells: 3.502
time-course reading M102, Supplementary Fig. 47 source data
  Th-T fluorescence, mean of three wells: 3.488
time-course reading M103, Supplementary Fig. 47 source data
  Th-T fluorescence, mean of three wells: 3.486
time-course reading M104, Supplementary Fig. 47 source data
  Th-T fluorescence, mean of three wells: 3.491
time-course reading M105, Supplementary Fig. 47 source data
  Th-T fluorescence, mean of three wells: 3.477
time-course reading M106, Supplementary Fig. 47 source data
  Th-T fluorescence, mean of three wells: 3.476
time-course reading M107, Supplementary Fig. 47 source data
  Th-T fluorescence, mean of three wells: 3.493
time-course reading M108, Supplementary Fig. 47 source data
  Th-T fluorescence, mean of three wells: 3.51
time-course reading M109, Supplementary Fig. 47 source data
  Th-T fluorescence, mean of three wells: 3.4898
time-course reading M110, Supplementary Fig. 47 source data
  Th-T fluorescence, mean of three wells: 3.516
time-course reading M111, Supplementary Fig. 47 source data
  Th-T fluorescence, mean of three wells: 3.513
time-course reading M112, Supplementary Fig. 47 source data
  Th-T fluorescence, mean of three wells: 3.526
time-course reading M113, Supplementary Fig. 47 source data
  Th-T fluorescence, mean of three wells: 3.459
time-course reading M114, Supplementary Fig. 47 source data
  Th-T fluorescence, mean of three wells: 3.543
time-course reading M115, Supplementary Fig. 47 source data
  Th-T fluorescence, mean of three wells: 3.464
time-course reading M116, Supplementary Fig. 47 source data
  Th-T fluorescence, mean of three wells: 3.458
